The source made the active and inactive calls. No cut-off for these calls is given here.
Test system: Staphylococcus aureus
Experiment: Antibacterial activity against Staphylococcus aureus CCT 4295
Format: functional, organism-based

COc1c(O)c2c(c3c1CCOC3=O)CC[C@H]1C(C)(C)CCC[C@]21C
Activity: Active
